Source: PubChem BioAssay AID222 (DTP/NCI, 2004)
Values joined by “and” are separate entries in the source; they are usually repeats but may differ in a detail not shown here. Equal entries are not always repeated. Inconclusive results and toxic doses are left out.

System: C57BL/6 mice, intracerebral ependymoblastoma, median survival T/C
Assay: NCI In Vivo Anticancer Drug Screen. Data for tumor model Ependymoblastoma (intracerebral) in C57BL/6 mice
Details: endpoint: median survival time, higher = longer survival
Protocol: The antitumor activity of compounds was measured in mice bearing transplantable tumors. Survival or tumor size were measured and the results are expressed as the measurement made in the treated group (T) divided by the measurement made in the vehicle treated control group (C). The tumor model used in this assay is Ependymoblastoma (intracerebral) in C57BL/6 mice

[1] = dose: 64.0 mg/kg/injection, schedule: Q01DX005 (ip), vehicle: saline
[2] = dose: 128.0 mg/kg/injection, schedule: Q01DX005 (ip), vehicle: saline
[3] = dose: 256.0 mg/kg/injection, schedule: Q01DX005 (ip), vehicle: saline
[4] = dose: 8.0 mg/kg/injection, schedule: Q01DX005 (ip), vehicle: Klucel (hydroxypropylcellulose) (HPC)
[5] = dose: 8.0 mg/kg/injection, schedule: Q01DX005 (ip), vehicle: saline with Tween-80
[6] = dose: 8.0 mg/kg/injection, schedule: Q01DX005 (ip), vehicle: saline
[7] = dose: 16.0 mg/kg/injection, schedule: Q01DX005 (ip), vehicle: saline with Tween-80
[8] = dose: 16.0 mg/kg/injection, schedule: Q01DX005 (ip), vehicle: saline
[9] = dose: 32.0 mg/kg/injection, schedule: Q01DX005 (ip), vehicle: Klucel (hydroxypropylcellulose) (HPC)
[10] = dose: 32.0 mg/kg/injection, schedule: Q01DX005 (ip), vehicle: saline with Tween-80
[11] = dose: 32.0 mg/kg/injection, schedule: Q01DX005 (ip), vehicle: saline
[12] = dose: 64.0 mg/kg/injection, schedule: Q01DX005 (ip), vehicle: Klucel (hydroxypropylcellulose) (HPC)
[13] = dose: 64.0 mg/kg/injection, schedule: Q01DX005 (ip), vehicle: saline with Tween-80
[14] = dose: 128.0 mg/kg/injection, schedule: Q01DX005 (ip), vehicle: Klucel (hydroxypropylcellulose) (HPC)
[15] = dose: 128.0 mg/kg/injection, schedule: Q01DX005 (ip), vehicle: saline with Tween-80

`CN(C)C(=O)N(CCCl)N=O` was tested, and the T/C (dose: 16.0 mg/kg/injection, schedule: Q01DX001 (ip), vehicle: other) was 154 % of control and the T/C (dose: 20.0 mg/kg/injection, schedule: Q01DX001 (ip), vehicle: other) was 279 % of control.

`O=c1ccn(C2OC(CO)C(O)C2O)c(=O)[nH]1` (stereo not drawn) was tested, and the T/C [1] was 93 % of control, the T/C [2] was 89 % of control and 100 % of control and the T/C [3] was 102 % of control and 109 % of control. The T/C (dose: 512.0 mg/kg/injection, schedule: Q01DX005 (ip), vehicle: saline) was 96 % of control and 108 % of control.

With `C[n+]1ccc(Nc2ccc(NC(=O)c3ccc(Nc4cc[n+](C)c5ccc(N)cc45)cc3)cc2)cc1` the T/C (dose: 1.0 mg/kg/injection, schedule: Q01DX005 (ip), vehicle: Klucel (hydroxypropylcellulose) (HPC)) was 95 % of control, the T/C (dose: 2.0 mg/kg/injection, schedule: Q01DX005 (ip), vehicle: Klucel (hydroxypropylcellulose) (HPC)) was 113 % of control and the T/C (dose: 4.0 mg/kg/injection, schedule: Q01DX005 (ip), vehicle: Klucel (hydroxypropylcellulose) (HPC)) was 108 % of control. For the same compound, the T/C [4] was 113 % of control.

With `CC[n+]1c(-c2ccccc2)c2cc(N)ccc2c2ccc(N)cc21` the T/C (dose: 12.0 mg/kg/injection, schedule: Q01DX005 (ip), vehicle: saline) was 99 % of control.

With `CCC1CC2CC(c3cc4c(cc3OC)N(C)C3C(O)(C(=O)OC)C(OC(C)=O)C5(CC)C=CCN6CCC43C65)c3[nH]c4ccccc4c3CCN(C1)C2` (stereo not drawn) the T/C (dose: 0.05 mg/kg/injection, schedule: Q01DX005 (ip), vehicle: saline) was 108 % of control, the T/C (dose: 0.1 mg/kg/injection, schedule: Q01DX005 (ip), vehicle: saline) was 112 % of control and the T/C (dose: 0.2 mg/kg/injection, schedule: Q01DX005 (ip), vehicle: saline) was 97 % of control. For the same compound, the T/C (dose: 0.4 mg/kg/injection, schedule: Q01DX005 (ip), vehicle: saline) was 119 % of control, the T/C (dose: 0.8 mg/kg/injection, schedule: Q01DX005 (ip), vehicle: saline) was 107 % of control and the T/C (dose: 3.2 mg/kg/injection, schedule: Q01DX005 (ip), vehicle: saline) was 96 % of control. For the same compound, the T/C (dose: 6.4 mg/kg/injection, schedule: Q01DX005 (ip), vehicle: saline) was 105 % of control and the T/C (dose: 12.8 mg/kg/injection, schedule: Q01DX005 (ip), vehicle: saline) was 102 % of control.

With `O=c1[nH]c(=O)n([C@H]2CCCO2)cc1F` the T/C [4] was 97 % of control and 98 % of control, the T/C [5] was 90 % of control and 97 % of control and the T/C [6] was 101 % of control and 111 % of control. The T/C (dose: 16.0 mg/kg/injection, schedule: Q01DX005 (ip), vehicle: Klucel (hydroxypropylcellulose) (HPC)) was 100 % of control and 106 % of control and 112 % of control, the T/C [7] was 103 % of control and 105 % of control and the T/C [8] was 100 % of control and 110 % of control. The T/C [9] was 98 % of control and 109 % of control and 114 % of control, the T/C [10] was 102 % of control and 106 % of control and the T/C [11] was 102 % of control and 109 % of control (2×). For the same compound, the T/C [12] was 100 % of control and 103 % of control and 108 % of control, the T/C [13] was 104 % of control and 120 % of control and the T/C [1] was 98 % of control and 111 % of control (2×). For the same compound, the T/C [14] was 112 % of control and 117 % of control, the T/C [15] was 111 % of control and 114 % of control and the T/C [2] was 102 % of control and 113 % of control and 119 % of control. For the same compound, the T/C [3] was 106 % of control and 121 % of control.

With `COc1ccc2c(c1O)-c1cc(O)cc3c1C(C2)N(CCCl)CC3` (stereo not drawn) the T/C (dose: 4.0 mg/kg/injection, schedule: Q01DX005 (ip), vehicle: saline with Tween-80) was 95 % of control and 98 % of control, the T/C [5] was 98 % of control and the T/C [7] was 94 % of control and 100 % of control. The T/C [10] was 110 % of control.

In the case of `c1cc2n(n1)CCN2`, the T/C [11] is reported as 108 % of control, the T/C [1] is reported as 100 % of control and the T/C [2] is reported as 102 % of control.

In the case of `F`, the T/C [8] is reported as 98 % of control and the T/C [11] is reported as 96 % of control.

With `O=NN(CCCl)C(=O)NC1CCCCC1` the T/C (dose: 8.0 mg/kg/injection, schedule: Q01DX001 (ip), vehicle: Klucel (hydroxypropylcellulose) (HPC)) was 106 % of control, the T/C (dose: 8.0 mg/kg/injection, schedule: Q01DX005 (oral), vehicle: Klucel (hydroxypropylcellulose) (HPC)) was 155 % of control and the T/C (dose: 16.0 mg/kg/injection, schedule: Q01DX001 (ip), vehicle: Klucel (hydroxypropylcellulose) (HPC)) was 105 % of control. The T/C (dose: 16.0 mg/kg/injection, schedule: Q01DX001 (oral), vehicle: Klucel (hydroxypropylcellulose) (HPC)) was 111 % of control, the T/C (dose: 16.0 mg/kg/injection, schedule: Q01DX005 (oral), vehicle: Klucel (hydroxypropylcellulose) (HPC)) was 311 % of control and the T/C (dose: 32.0 mg/kg/injection, schedule: Q01DX001 (ip), vehicle: Klucel (hydroxypropylcellulose) (HPC)) was 98 % of control and 111 % of control. For the same compound, the T/C (dose: 32.0 mg/kg/injection, schedule: Q01DX001 (oral), vehicle: Klucel (hydroxypropylcellulose) (HPC)) was 113 % of control, the T/C (dose: 32.0 mg/kg/injection, schedule: Q01DX005 (oral), vehicle: Klucel (hydroxypropylcellulose) (HPC)) was 310 % of control and the T/C (dose: 64.0 mg/kg/injection, schedule: Q01DX001 (ip), vehicle: Klucel (hydroxypropylcellulose) (HPC)) was 104 % of control and 106 % of control. For the same compound, the T/C (dose: 64.0 mg/kg/injection, schedule: Q01DX001 (oral), vehicle: Klucel (hydroxypropylcellulose) (HPC)) was 113 % of control, the T/C (dose: 128.0 mg/kg/injection, schedule: Q01DX001 (ip), vehicle: Klucel (hydroxypropylcellulose) (HPC)) was 95 % of control and the T/C (dose: 128.0 mg/kg/injection, schedule: Q01DX001 (oral), vehicle: Klucel (hydroxypropylcellulose) (HPC)) was 100 % of control. For the same compound, the T/C (dose: 256.0 mg/kg/injection, schedule: Q01DX001 (ip), vehicle: Klucel (hydroxypropylcellulose) (HPC)) was 108 % of control, the T/C (dose: 256.0 mg/kg/injection, schedule: Q01DX001 (oral), vehicle: Klucel (hydroxypropylcellulose) (HPC)) was 104 % of control and the T/C (dose: 512.0 mg/kg/injection, schedule: Q01DX001 (ip), vehicle: Klucel (hydroxypropylcellulose) (HPC)) was 95 % of control. For the same compound, the T/C (dose: 512.0 mg/kg/injection, schedule: Q01DX001 (oral), vehicle: Klucel (hydroxypropylcellulose) (HPC)) was 97 % of control.

For `CCOC(=O)C(C)(C)Oc1ccc(Cl)cc1`, the T/C (dose: 100.0 mg/kg/injection, schedule: Q01DX005 (ip), vehicle: saline with Tween-80) was 96 % of control and the T/C (dose: 200.0 mg/kg/injection, schedule: Q01DX005 (ip), vehicle: saline with Tween-80) was 93 % of control.

In the case of `CC(=O)[C@]1(O)Cc2c(O)c3c(c(O)c2[C@@H](OC2CC(N)C(O)C(C)O2)C1)C(=O)c1c(O)cccc1C3=O` (stereo partly drawn), the T/C (dose: 7.8 micrograms/kg/injection, schedule: Q01DX005 (ip), vehicle: suspension in saline) is reported as 102 % of control, the T/C (dose: 15.6 micrograms/kg/injection, schedule: Q01DX005 (ip), vehicle: suspension in saline) is reported as 104 % of control and the T/C (dose: 31.0 micrograms/kg/injection, schedule: Q01DX005 (ip), vehicle: suspension in saline) is reported as 101 % of control. The T/C (dose: 62.5 micrograms/kg/injection, schedule: Q01DX005 (ip), vehicle: suspension in saline) was 99 % of control and the T/C (dose: 125.0 micrograms/kg/injection, schedule: Q01DX005 (ip), vehicle: suspension in saline) was 114 % of control.

In the case of `O=c1cc[nH]c(=O)[nH]1`, the T/C [9] is reported as 98 % of control, the T/C [12] is reported as 98 % of control and 105 % of control and the T/C [13] is reported as 95 % of control. The T/C [14] was 100 % of control and 108 % of control, the T/C [15] was 98 % of control and the T/C (dose: 256.0 mg/kg/injection, schedule: Q01DX005 (ip), vehicle: Klucel (hydroxypropylcellulose) (HPC)) was 98 % of control and 110 % of control. For the same compound, the T/C (dose: 256.0 mg/kg/injection, schedule: Q01DX005 (ip), vehicle: saline with Tween-80) was 94 % of control, the T/C (dose: 512.0 mg/kg/injection, schedule: Q01DX005 (ip), vehicle: Klucel (hydroxypropylcellulose) (HPC)) was 96 % of control and 104 % of control and the T/C (dose: 512.0 mg/kg/injection, schedule: Q01DX005 (ip), vehicle: saline with Tween-80) was 104 % of control. For the same compound, the T/C (dose: 1024.0 mg/kg/injection, schedule: Q01DX005 (ip), vehicle: Klucel (hydroxypropylcellulose) (HPC)) was 109 % of control and the T/C (dose: 1024.0 mg/kg/injection, schedule: Q01DX005 (ip), vehicle: saline with Tween-80) was 100 % of control.

In the case of `Cc1c2cc[n+](C)cc2c(C)c2c1[nH]c1ccc(O)cc12`, the T/C (dose: 0.12 mg/kg/injection, schedule: Q01DX005 (ip), vehicle: saline) is reported as 100 % of control, the T/C (dose: 0.25 mg/kg/injection, schedule: Q01DX005 (ip), vehicle: saline) is reported as 101 % of control and 112 % of control and the T/C (dose: 0.5 mg/kg/injection, schedule: Q01DX005 (ip), vehicle: saline) is reported as 101 % of control.

`CCN(CC)c1ccc2cc3ccc(=[N+](CC)CC)cc-3oc2c1` was tested, and the T/C (dose: 4.0 mg/kg/injection, schedule: Q01DX005 (ip), vehicle: saline) was 100 % of control and the T/C [6] was 107 % of control.
